The NIST ThermoML archive (doi:10.1016/j.jct.2015.09.022)

Experiment: xn = mol fraction of the nth substance listed
Conditions: 100.7 kPa, Liquid; for viscosity: Falling or rolling sphere viscometry; for speed of sound: Frequency=3 MHz, Sing-around technique in a fixed-path interferometer; for mass density: Vibrating tube method

CCCC[n+]1ccn(C)c1.O=S(=O)([N-]S(=O)(=O)C(F)(F)F)C(F)(F)F + CCCCOC(C)=O
Conditions	mass density, 313.15 K [kg/m3]	mass density, 318.15 K [kg/m3]	mass density, 323.15 K [kg/m3]	speed of sound, 313.15 K [m/s]	speed of sound, 318.15 K [m/s]	speed of sound, 323.15 K [m/s]	viscosity, 313.15 K [mPa·s]	viscosity, 318.15 K [mPa·s]	viscosity, 323.15 K [mPa·s]
x1 = 0.0252	–	–	–	1128.5	1108.2	1089.6	–	–	–
x1 = 0.0521	–	–	–	1127	1109.2	1090.2	–	–	–
x1 = 0.0754	–	–	–	1127.2	1109.6	1091.3	–	–	–
x1 = 0.11	987.68	982.52	977.62	1127.8	1110	1092.3	0.96	0.8	0.83
x1 = 0.2089	1076.25	1071.24	1066.34	1133.2	1117.1	1101.2	1.72	1.49	1.37
x1 = 0.2993	1142.16	1137.09	1132.21	1139.5	1124.6	1109.9	2.81	2.35	2
x1 = 0.393	1199.24	1194.31	1189.38	1146.2	1132	1118.7	4.65	3.96	2.93
x1 = 0.4847	1246.74	1241.85	1236.98	1153.9	1140.8	1127.9	6.64	5.5	4.14
x1 = 0.5739	1286.33	1281.71	1276.92	1161	1148.4	1136	8.59	6.92	5.48
x1 = 0.687	1330.2	1325.49	1320.8	1170.2	1159.3	1147.5	12.16	9.96	8.24
x1 = 0.7791	1361.33	1356.79	1352.11	1178.5	1168	1155.7	15.96	13.17	10.74
x1 = 0.9056	1398.49	1393.84	1389.18	1188.4	1178.5	1166.3	22.61	18.87	15.82
x1 = 1	1422.37	1417.6	1412.86	1194.4	1184.5	1171.3	28.28	24.01	20.32
